# Experiments:
# CV-1 cells = settings: African green monkey
# RK44.20 cells = settings: rabbit
# cowpox virus [1] = settings: mouse, in vivo; cited from earlier work
# cowpox virus [2] = settings: mouse, in vivo; cited from earlier work; remark: listed apart in the source
SMILES,AZT concentration with toxic effect on cells (CV-1 cells),AZT concentration with toxic effect on cells (RK44.20 cells),effect on mortality (cowpox virus [1]),effect on death (cowpox virus [2])
"Cc1cn([C@H]2C[C@H](N=[N+]=[N-])[C@@H](CO)O2)c(=O)[nH]c1=O [AZT, 3′-azido-2′,3′-dideoxythymidine]",> 1.5 mg/mL,> 1.5 mg/mL,,
Nc1ccn(C[C@@H](CO)OCP(=O)(O)O)c(=O)n1 [Cidofovir],,,reduce mortality,only delayed but did not prevent death

# — patent US8753648B2 (priority 2002, dated 2014)
